Reference: article doi:10.1101/2024.08.19.608619, “Discovery of potent SARS-CoV-2 nsp3 macrodomain inhibitors uncovers lack of translation to cellular antiviral response” (bioRxiv, 2024)
Like-named read-outs stand apart in the source and are kept apart here.

Legend:
SARS-CoV-2 nsp3-mac1 [1] = biological target: T1, SARS-CoV-2 nsp3-mac1 (Severe acute respiratory syndrome coronavirus 2, UniProt P0DTD1); test: biochemical; format: biochemical; details: SARS-CoV-2 nsp3 macrodomain TR-FRET single point
SARS-CoV-2 nsp3-mac1 [2] = biological target: T1, SARS-CoV-2 nsp3-mac1; test: biochemical; parameters: SARS-CoV-2 nsp3 macrodomain TR-FRET single point, per cent inhibition, n=2
[3] = read-out: perc_inhibition_mean, batch_name=ASAP-0000455-001
[4] = read-out: perc_inhibition_mean, batch_name=ASAP-0000196-002
[5] = read-out: perc_inhibition_mean, batch_name=ASAP-0000203-002
[6] = read-out: perc_inhibition_mean, batch_name=ASAP-0000418-001
[7] = read-out: perc_inhibition_mean, batch_name=ASAP-0000420-001
[8] = read-out: perc_inhibition_mean, batch_name=ASAP-0000366-001
[9] = read-out: perc_inhibition_mean, batch_name=ASAP-0000457-001
[10] = read-out: perc_inhibition_mean, batch_name=ASAP-0000279-001
[11] = read-out: perc_inhibition_mean, batch_name=ASAP-0000427-001
[12] = read-out: perc_inhibition_mean, batch_name=ASAP-0000380-001
[13] = read-out: perc_inhibition_mean, batch_name=ASAP-0000251-001
[14] = read-out: perc_inhibition_mean, batch_name=ASAP-0000410-001

`CC(C)[C@@H](Nc1ncnc2[nH]ccc12)c1cccs1` [ASAP-0000455] showed a perc_inhibition_mean (SARS-CoV-2 nsp3-mac1 [1]; concentration 49.75 uM) of 84.659%, a perc_inhibition_mean (SARS-CoV-2 nsp3-mac1 [1]; concentration 99.5 uM) of 89.893% and an inhibition at 49.75 µM (SARS-CoV-2 nsp3-mac1 [2]; [3]) of 84.7%. It also gave an inhibition at 99.5 µM (SARS-CoV-2 nsp3-mac1 [2]; [3]) of 89.9%.
With `c1cc(-c2nnc(Sc3ncnc4[nH]ccc34)[nH]2)ccn1` [ASAP-0000196] the perc_inhibition_mean (SARS-CoV-2 nsp3-mac1 [1]; concentration 50.0 uM) was 5.47%, the perc_inhibition_mean (SARS-CoV-2 nsp3-mac1 [1]; concentration 50.0 uM, n=2) was 10.682% and the perc_inhibition_mean (SARS-CoV-2 nsp3-mac1 [1]; concentration 100.0 uM, n=2) was 3.318%. It also gave an inhibition at 50 µM (SARS-CoV-2 nsp3-mac1 [2]; read-out: perc_inhibition_mean, batch_name=ASAP-0000196-001) of 5.47%, an inhibition at 50 µM (SARS-CoV-2 nsp3-mac1 [2]; [4]) of 10.7% and an inhibition at 100 µM (SARS-CoV-2 nsp3-mac1 [2]; [4]) of 3.32%.
`c1nc(N2CC[C@@H](n3cncn3)C2)c2cc[nH]c2n1` [ASAP-0000006] gave a perc_inhibition_mean (SARS-CoV-2 nsp3-mac1 [1]; concentration 50.0 uM) of -1.543% and an inhibition at 50 µM (SARS-CoV-2 nsp3-mac1 [2]; read-out: perc_inhibition_mean, batch_name=ASAP-0000006-001) of -1.54%.
Molecule `Cc1ccc(-c2n[nH]cc2CNc2cnc3[nH]ncc3c2)o1` [ASAP-0000203] has a perc_inhibition_mean (SARS-CoV-2 nsp3-mac1 [1]; concentration 50.0 uM) of 7.232%, a perc_inhibition_mean (SARS-CoV-2 nsp3-mac1 [1]; concentration 50.0 uM, n=2) of -21.592% and a perc_inhibition_mean (SARS-CoV-2 nsp3-mac1 [1]; concentration 100.0 uM, n=2) of -24.84%. The inhibition at 50 µM (SARS-CoV-2 nsp3-mac1 [2]; read-out: perc_inhibition_mean, batch_name=ASAP-0000203-001) was 7.23%, the inhibition at 50 µM (SARS-CoV-2 nsp3-mac1 [2]; [5]) was -21.6% and the inhibition at 100 µM (SARS-CoV-2 nsp3-mac1 [2]; [5]) was -24.8%.
With `CCn1cc(CNc2cc3c(O)ncnc3cn2)nn1` [ASAP-0000189] the perc_inhibition_mean (SARS-CoV-2 nsp3-mac1 [1]; concentration 50.0 uM) was 1.671% and the inhibition at 50 µM (SARS-CoV-2 nsp3-mac1 [2]; read-out: perc_inhibition_mean, batch_name=ASAP-0000189-001) was 1.67%.
For `Cn1ncnc1C(=O)N1CCC(c2ccn3ncc(C(=O)N4CCCCC4)c3c2)CC1` [ASAP-0000418], the perc_inhibition_mean (SARS-CoV-2 nsp3-mac1 [1]; concentration 49.75 uM) was 2.38%, the perc_inhibition_mean (SARS-CoV-2 nsp3-mac1 [1]; concentration 99.5 uM) was 20.346% and the inhibition at 49.75 µM (SARS-CoV-2 nsp3-mac1 [2]; [6]) was 2.38%. It also gave an inhibition at 99.5 µM (SARS-CoV-2 nsp3-mac1 [2]; [6]) of 20.3%.
`O=S1(=O)CCC[C@@H](CNc2ncnc3n[nH]cc23)C1` [ASAP-0000051] was tested, and the perc_inhibition_mean (SARS-CoV-2 nsp3-mac1 [1]; concentration 50.0 uM) was 4.593% and the inhibition at 50 µM (SARS-CoV-2 nsp3-mac1 [2]; read-out: perc_inhibition_mean, batch_name=ASAP-0000051-001) was 4.59%.
Molecule `O=C(c1cc(O)ncn1)N1CCC(c2ccn3ncc(C(=O)N4CCCCC4)c3c2)CC1` [ASAP-0000420] has a perc_inhibition_mean (SARS-CoV-2 nsp3-mac1 [1]; concentration 49.75 uM) of 19.125%, a perc_inhibition_mean (SARS-CoV-2 nsp3-mac1 [1]; concentration 99.5 uM) of 30.869% and an inhibition at 49.75 µM (SARS-CoV-2 nsp3-mac1 [2]; [7]) of 19.1%. It also gave an inhibition at 99.5 µM (SARS-CoV-2 nsp3-mac1 [2]; [7]) of 30.9%.
`COc1cc(CC(=O)Nc2cc3c(=O)nc[nH]c3cn2)on1` [ASAP-0000366] showed a perc_inhibition_mean (SARS-CoV-2 nsp3-mac1 [1]; concentration 49.75 uM) of -4.691%, a perc_inhibition_mean (SARS-CoV-2 nsp3-mac1 [1]; concentration 99.5 uM) of -3.481% and an inhibition at 49.75 µM (SARS-CoV-2 nsp3-mac1 [2]; [8]) of -4.69%. It also gave an inhibition at 99.5 µM (SARS-CoV-2 nsp3-mac1 [2]; [8]) of -3.48%.
`c1ccc2sc(CCNc3ncnc4nc[nH]c34)nc2c1` [ASAP-0000003] was tested, and the perc_inhibition_mean (SARS-CoV-2 nsp3-mac1 [1]; concentration 50.0 uM) was -4.211% and the inhibition at 50 µM (SARS-CoV-2 nsp3-mac1 [2]; read-out: perc_inhibition_mean, batch_name=ASAP-0000003-001) was -4.21%.
Work on `CC(C)(CCNc1ncnc2[nH]ccc12)S(C)(=O)=O` [ASAP-0000004] yielded a perc_inhibition_mean (SARS-CoV-2 nsp3-mac1 [1]; concentration 50.0 uM) of 0.75% and an inhibition at 50 µM (SARS-CoV-2 nsp3-mac1 [2]; read-out: perc_inhibition_mean, batch_name=ASAP-0000004-001) of 0.75%.
Work on `Cn1nc(C(=O)O)cc1C(=O)N1CCC(c2ccn3ncc(C(=O)N4CCCCC4)c3c2)CC1` [ASAP-0000457] yielded a perc_inhibition_mean (SARS-CoV-2 nsp3-mac1 [1]; concentration 49.75 uM) of 34.252%, a perc_inhibition_mean (SARS-CoV-2 nsp3-mac1 [1]; concentration 99.5 uM) of 52.667% and an inhibition at 49.75 µM (SARS-CoV-2 nsp3-mac1 [2]; [9]) of 34.3%. For the same molecule, the inhibition at 99.5 µM (SARS-CoV-2 nsp3-mac1 [2]; [9]) was 52.7%.
`FC(F)(F)c1nnc2n1CCN(c1ncnc3[nH]ccc13)C2` [ASAP-0000279] gave a perc_inhibition_mean (SARS-CoV-2 nsp3-mac1 [1]; concentration 49.75 uM, n=2) of -1.969%, a perc_inhibition_mean (SARS-CoV-2 nsp3-mac1 [1]; concentration 99.5 uM, n=2) of -1.005% and an inhibition at 49.75 µM (SARS-CoV-2 nsp3-mac1 [2]; [10]) of -1.97%. It also gave an inhibition at 99.5 µM (SARS-CoV-2 nsp3-mac1 [2]; [10]) of -1%.
`O=C(CNc1ncnc2[nH]ccc12)N1CCc2ccccc21` [ASAP-0000034] gave a perc_inhibition_mean (SARS-CoV-2 nsp3-mac1 [1]; concentration 50.0 uM) of 1.193% and an inhibition at 50 µM (SARS-CoV-2 nsp3-mac1 [2]; read-out: perc_inhibition_mean, batch_name=ASAP-0000034-001) of 1.19%.
`Cc1cccc([C@@H]2CCCN2c2ncnc3[nH]ccc23)n1` [ASAP-0000108] gave a perc_inhibition_mean (SARS-CoV-2 nsp3-mac1 [1]; concentration 50.0 uM) of 0.182% and an inhibition at 50 µM (SARS-CoV-2 nsp3-mac1 [2]; read-out: perc_inhibition_mean, batch_name=ASAP-0000108-001) of 0.182%.
Molecule `CN(c1ncnc2[nH]ncc12)[C@@H](CCO)c1ccccc1` [ASAP-0000427] has a perc_inhibition_mean (SARS-CoV-2 nsp3-mac1 [1]; concentration 49.75 uM) of 8.856%, a perc_inhibition_mean (SARS-CoV-2 nsp3-mac1 [1]; concentration 99.5 uM) of 5.14% and an inhibition at 49.75 µM (SARS-CoV-2 nsp3-mac1 [2]; [11]) of 8.86%. For the same molecule, the inhibition at 99.5 µM (SARS-CoV-2 nsp3-mac1 [2]; [11]) was 5.14%.
Work on `Cn1cc([C@@H](Nc2ncnc3[nH]ccc23)c2ccccc2)cn1` [ASAP-0000380] yielded a perc_inhibition_mean (SARS-CoV-2 nsp3-mac1 [1]; concentration 49.75 uM) of 19.983%, a perc_inhibition_mean (SARS-CoV-2 nsp3-mac1 [1]; concentration 99.5 uM) of 39.262% and an inhibition at 49.75 µM (SARS-CoV-2 nsp3-mac1 [2]; [12]) of 20%. For the same molecule, the inhibition at 99.5 µM (SARS-CoV-2 nsp3-mac1 [2]; [12]) was 39.3%.
Work on `Clc1cnc(N2CCN(c3ncnc4[nH]ccc34)CC2)c(Cl)c1` [ASAP-0000251] yielded a perc_inhibition_mean (SARS-CoV-2 nsp3-mac1 [1]; concentration 50.0 uM) of -1.996%, a perc_inhibition_mean (SARS-CoV-2 nsp3-mac1 [1]; concentration 100.0 uM) of -6.565% and an inhibition at 50 µM (SARS-CoV-2 nsp3-mac1 [2]; [13]) of -2%. For the same molecule, the inhibition at 100 µM (SARS-CoV-2 nsp3-mac1 [2]; [13]) was -6.57%.
`Cc1nsc(N(C)C(=O)c2cnn3ccc(C4CCN(C(=O)c5ccccc5)CC4)cc23)n1` [ASAP-0000410] showed a perc_inhibition_mean (SARS-CoV-2 nsp3-mac1 [1]; concentration 49.75 uM) of -10.512%, a perc_inhibition_mean (SARS-CoV-2 nsp3-mac1 [1]; concentration 99.5 uM) of -11.519% and an inhibition at 49.75 µM (SARS-CoV-2 nsp3-mac1 [2]; [14]) of -10.5%. It also gave an inhibition at 99.5 µM (SARS-CoV-2 nsp3-mac1 [2]; [14]) of -11.5%.
